Patent publication US12139477B2, “Compounds, salts thereof and methods for treatment of diseases” (ACADIA PHARMACEUTICALS INC., priority 2017, dated 2024)

Biological target: T1, hERG channel (Homo sapiens, UniProt Q12809)
T1 construct: host or cells: CHO cells, stably transfected
Test: hERG assay, whole cell recordings in CHO cells (AVIVA)
Assay type: cell-based
Conditions: CHO cells stably expressing hERG, pH 7.4
Procedure: The most common mechanism for these adverse events is the inhibition of one or more cardiac potassium channels, in particular hERG. This current is important for cardiac myocyte repolarization and is a common target for drugs that prolong the QT interval. Test articles in this study were therefore characterized to determine their ability to inhibit the hERG channel. Ion channel activity was measured at AVIVA Biosciences Corporation (San Diego, CA), using a stably transfected Chinese Hamster Ovary (CHO) cell line expressing the hERG mRNA.
Cells: AVIVA's CHO cell line, which stably expresses hERG channels, was used for the study. Cells were cultured in DMEM/F12 containing 10% FBS, 1% penicillin/streptomycin and 500 μg/ml G418. Before testing, cells were harvested using Accumax (Innovative Cell Technologies).
Solutions: For electrophysiological recordings, the following solutions were used: External Solution: 2 mM CaCl2); 2 mM MgCl2; 4 mM KCl; 150 mM NaCl; 10 mM Glucose; 10 mM HEPES; 305-315 mOsm; pH 7.4 (adjusted with 5M NaOH); Internal Solution: 140 mM KCl; 10 mM MgCl2; 6 mM EGTA; 5 mM HEPES-Na; 5 mM ATP-Mg; 295-305 mOsm; pH 7.25 (adjusted with 1M KOH).
Electrophysiology: Whole cell recordings were performed using PX 7000A (Axon Instruments) with AVIVA's SealChip™ technology. Cells were voltage clamped at a holding potential of −80 mV. The hERG current was then activated by a depolarizing step to −50 mV for 300 ms. This first step at −50 mV was used as a baseline for measuring peak amplitude of the tail current. Next, a voltage step to +20 mV was applied for 5 s to activate the channels. Finally, a step back to −50 mV for 5 s removed activation and the deactivating tail current was recorded.
Test Article Handling and Dilutions: All test articles were prepared from 10 mM DMSO stock solutions provided by Sponsor. Solutions were mixed by sonication for 20 min, followed by vigorous vortexing. Prior to testing, compounds were diluted to test concentrations in glass vials using External Solution. Dilutions were prepared no longer than 20 min prior to use.
Electrophysiology Procedures: After achieving whole cell configuration, cells were monitored for 90 s to assess stability and then washed with External Solution for 66 s. The voltage protocol previously described was then applied to the cells every 12 s throughout the procedure. Only stable cells with recording parameters above threshold (see Quality Control section) were allowed to enter the drug addition procedure. External solution containing 0.1% DMSO (vehicle) was applied to the cells to establish a baseline. […] Test article solutions were added to cells in 4 separate additions. Cells were kept in test solution until effect of the test article reached steady state, to a maximum of 12 min. Next, 1 μM cisapride (positive control) was added. Finally, washout with External Solution was performed until the recovery current reached steady state.
Data Analysis: Data analysis was performed using DataXpress (Axon Instruments), Clampfit (Axon Instruments) and Origin (OriginLab Corporation) software.

T1 sequence (Q12809 whole entry): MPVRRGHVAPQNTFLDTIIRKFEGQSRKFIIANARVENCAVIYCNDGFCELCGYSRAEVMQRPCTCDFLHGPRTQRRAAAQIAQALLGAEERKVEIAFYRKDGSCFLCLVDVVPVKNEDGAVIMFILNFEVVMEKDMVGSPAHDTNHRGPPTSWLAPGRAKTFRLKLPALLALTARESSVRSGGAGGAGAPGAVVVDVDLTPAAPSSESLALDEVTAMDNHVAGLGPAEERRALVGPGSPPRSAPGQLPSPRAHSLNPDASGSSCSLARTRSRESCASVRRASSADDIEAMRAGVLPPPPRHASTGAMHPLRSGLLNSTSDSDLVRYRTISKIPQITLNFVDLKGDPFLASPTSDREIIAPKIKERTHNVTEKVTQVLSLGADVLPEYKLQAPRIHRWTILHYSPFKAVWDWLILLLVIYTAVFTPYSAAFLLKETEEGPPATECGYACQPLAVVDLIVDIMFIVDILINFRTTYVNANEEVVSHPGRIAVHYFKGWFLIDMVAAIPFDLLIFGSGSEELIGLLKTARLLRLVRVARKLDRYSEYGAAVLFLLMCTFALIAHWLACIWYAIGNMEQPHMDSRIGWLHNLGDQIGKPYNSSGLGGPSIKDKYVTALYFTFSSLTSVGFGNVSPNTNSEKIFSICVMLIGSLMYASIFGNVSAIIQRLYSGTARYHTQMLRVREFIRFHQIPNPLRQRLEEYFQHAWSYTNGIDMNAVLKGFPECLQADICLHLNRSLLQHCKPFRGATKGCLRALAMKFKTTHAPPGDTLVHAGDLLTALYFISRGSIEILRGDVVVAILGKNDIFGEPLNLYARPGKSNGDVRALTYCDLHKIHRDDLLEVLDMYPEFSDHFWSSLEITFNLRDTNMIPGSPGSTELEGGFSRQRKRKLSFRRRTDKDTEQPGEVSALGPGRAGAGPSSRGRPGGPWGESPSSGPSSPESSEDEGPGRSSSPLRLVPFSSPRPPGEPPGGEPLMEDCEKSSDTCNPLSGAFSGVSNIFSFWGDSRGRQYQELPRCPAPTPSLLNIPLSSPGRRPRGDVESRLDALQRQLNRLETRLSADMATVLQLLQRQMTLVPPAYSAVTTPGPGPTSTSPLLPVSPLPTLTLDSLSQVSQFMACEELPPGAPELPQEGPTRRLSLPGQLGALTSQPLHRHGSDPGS

Structure (SMILES) | inhibition at 1 µM [%]
Cc1nc2cc(CNC(=O)N(Cc3ccc(F)cc3F)C3CCN(C)CC3)ccc2o1 [Example 22] | 10
CN1CCC(N(Cc2ccc(F)cc2F)C(=O)NCc2ccc3c(c2)n(C)c(=O)n3C)CC1 [Example 40] | 9
CN1CCC(N(Cc2ccc(F)cc2F)C(=O)NCc2ccc3cn[nH]c3c2)CC1 [Example 41] | 23
CN1CCC(N(Cc2ccc(F)cc2F)C(=O)NCc2ccc3c(c2)ncn3C)CC1 [Example 55] | 10

Biological target: 5HT2A (Homo sapiens, UniProt P28223)
Test: Receptor Selection and Amplification (R-SAT) functional assay
Assay type: cell-based
Set-up: expressed in transfected cells; host or cells: NIH3T3 cells, pSI mammalian expression vector
Conditions: NIH3T3 cells; Ki from IC50 by Cheng and Prussoff
Excerpt: Receptor Selection and Amplification (R-SAT) Assays. […] The IC50 determined in the RSAT assay was converted into a Ki value using the method of Cheng and Prussoff, Biochem Pharmacol., 1973 Dec. 1; 22(23):3099-108. pKi is the negative of the log(Ki).

Sequence of 5HT2A (P28223 whole entry): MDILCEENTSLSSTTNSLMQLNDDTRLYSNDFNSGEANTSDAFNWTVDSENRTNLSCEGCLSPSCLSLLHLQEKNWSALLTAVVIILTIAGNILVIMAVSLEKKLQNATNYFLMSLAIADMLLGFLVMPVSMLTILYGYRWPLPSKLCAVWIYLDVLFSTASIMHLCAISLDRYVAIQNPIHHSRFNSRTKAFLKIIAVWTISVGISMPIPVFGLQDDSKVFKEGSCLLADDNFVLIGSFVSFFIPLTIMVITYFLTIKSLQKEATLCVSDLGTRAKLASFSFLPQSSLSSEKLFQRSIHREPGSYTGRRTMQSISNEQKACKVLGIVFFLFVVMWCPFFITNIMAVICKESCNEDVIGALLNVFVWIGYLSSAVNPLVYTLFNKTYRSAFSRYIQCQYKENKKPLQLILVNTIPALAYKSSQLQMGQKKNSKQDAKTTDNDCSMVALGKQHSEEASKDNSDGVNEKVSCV

Structure (SMILES) | 5-HT2a (pKi) (R-SAT)
CCCCOc1ccc(CNC(=O)N(Cc2ccc(F)cc2F)C2CCNCC2)cc1.CCCCOc1ccc(CNC(=O)N(Cc2ccc(F)cc2F)C2CCNCC2)cc1.O=C(O)C(O)C(O)C(=O)O [Example 123, 3-[(4-butoxyphenyl)methyl]-1-[(2,4-difluorophenyl)methyl]-1-(piperidin-4-yl)urea; Hemitartrate] | 7.8
COc1ccc(CNC(=O)N(Cc2ccc(F)cc2F)C2CCNCC2)cc1.COc1ccc(CNC(=O)N(Cc2ccc(F)cc2F)C2CCNCC2)cc1.O=C(O)C(O)C(O)C(=O)O [Example 126, 1-[(2,4-difluorophenyl)methyl]-3-[(4-methoxyphenyl)methyl]-1-(piperidin-4-yl)urea; Hemitartrate] | 8.1
CCOc1ccc(CNC(=O)N(Cc2ccc(F)cc2F)C2CCNCC2)cc1.CCOc1ccc(CNC(=O)N(Cc2ccc(F)cc2F)C2CCNCC2)cc1.O=C(O)C(O)C(O)C(=O)O [Example 127, 3-[(2,4-difluorophenyl)methyl]-1-[(4-ethoxyphenyl)methyl]-3-(piperidin-4-yl)urea; Hemitartrate] | 8.2

Same assay, conditions: NIH3T3 cells; Ki from IC50 by Cheng and Prussoff; read-out: 5-HT2a (pKi) (R-SAT) (converted)

Ki [nM] | Structure (SMILES)
10 | COc1ccc(CNC(=O)N(Cc2ccc(F)cc2F)C2CCN(C)CC2)cc1F [Example 118, 1-[(2,4-difluorophenyl)methyl]-3-[(3-fluoro-4-methoxyphenyl)methyl]-1-(1-methylpiperidin-4-yl)urea]
63.1 | CN1CCC(N(Cc2ccc(F)cc2F)C(=O)NCc2ccc(O)cc2F)CC1 [Example 119, 1-[(2,4-difluorophenyl)methyl]-3-[(2-fluoro-4-hydroxyphenyl)methyl]-1-(1-methylpiperidin-4-yl)urea]
7.94 | CN1CCC(N(Cc2ccc(F)cc2F)C(=O)NCc2ccc(Oc3ccccc3)cc2)CC1 [Example 120, 3-[(2,4-difluorophenyl)methyl]-3-(1-methylpiperidin-4-yl)-1-[(4-phenoxyphenyl)methyl]urea]
126 | COc1ccc(CN(C(=O)NCc2ccc(OCC(C)C)cc2)C2CCN(C)CC2)c(C(F)(F)F)c1 [Example 121, 3-{[4-methoxy-2-(trifluoromethyl)phenyl]methyl}-3-(1-methylpiperidin-4-yl)-1-{[4-(2-methylpropoxy)phenyl]methyl}urea]
7.94 | COc1ccc(CN(C(=O)NCc2ccc(OC(C)C)cc2)C2CCN(C)CC2)c(F)c1 [Example 122, 1-[(2-fluoro-4-methoxyphenyl)methyl]-1-(1-methylpiperidin-4-yl)-3-{[4-(propan-2-yloxy)phenyl]methyl}urea; Trifluoroacetic Acid]
7.94 | CN1CCC(N(Cc2ccc(F)cc2F)C(=O)NCc2ccc3c(c2)OCO3)CC1 [Example 128, 3-[(2H-1,3-benzodioxol-5-yl)methyl]-1-[(2,4-difluorophenyl)methyl]-1-(1-methylpiperidin-4-yl)urea]
50.1 | CC(C)COc1ccc(CNC(=O)N(Cc2cccc(F)c2F)C2CCN(C)CC2)cc1 [Example 129, 1-[(2,3-difluorophenyl)methyl]-1-(1-methylpiperidin-4-yl)-3-{[4-(2-methylpropoxy)phenyl]methyl}urea; Trifluoroacetic Acid]
79.4 | CC(C)Oc1ccc(CNC(=O)N(Cc2ccc(F)c(F)c2)C2CCN(C)CC2)cc1 [Example 130, 1-[(3,4-difluorophenyl)methyl]-1-(1-methylpiperidin-4-yl)-3-{[4-(propan-2-yloxy)phenyl]methyl}urea; Trifluoroacetic Acid]
0.631 | O=C(O)C(F)(F)F.[2H]C([2H])([2H])N1CCC(N(Cc2ccc(F)cc2F)C(=O)NCc2ccc(OC(C)C)cc2)CC1 [Example 131, 1-[(2,4-difluorophenyl)methyl]-1-[1-(^2H3)methylpiperidin-4-yl]-3-{[4-(propan-2-yloxy)phenyl]methyl}urea; Trifluoroacetic Acid]
79.4 | CC(C)Oc1ccc(CNC(=O)N(Cc2ccc(F)c(F)c2F)C2CCNCC2)cc1 [Example 132, 1-(piperidin-4-yl)-3-{[4-(propan-2-yloxy)phenyl]methyl}-1-[(2,3,4-trifluorophenyl)methyl]urea; Trifluoroacetic Acid]
5.01 | CC(C)Oc1ccc(CNC(=O)N(Cc2ccc(Cl)cc2F)C2CCNCC2)cc1 [Example 133, 3-[(4-chloro-2-fluorophenyl)methyl]-3-(piperidin-4-yl)-1-{[4-(propan-2-yloxy)phenyl]methyl}urea; Trifluoroacetic Acid]
3.98 | CC(C)COc1ccc(CNC(=O)N(Cc2ccc(Cl)cc2F)C2CCNCC2)cc1 [Example 134, 3-[(4-chloro-2-fluorophenyl)methyl]-1-{[4-(2-methylpropoxy)phenyl]methyl}-3-(piperidin-4-yl)urea; Trifluoroacetic Acid]
15.8 | CC(C)Oc1ccc(CNC(=O)N(Cc2ccc(F)c(F)c2F)C2CCN(C)CC2)cc1 [Example 135, 1-(1-methylpiperidin-4-yl)-3-{[4-(propan-2-yloxy)phenyl]methyl}-1-[(2,3,4-trifluorophenyl)methyl]urea; Trifluoroacetic Acid]
7.94 | COc1cc(F)c(CN(C(=O)NCc2ccc(OC(C)C)cc2)C2CCN(C)CC2)c(F)c1 [Example 136, 1-[(2,6-difluoro-4-methoxyphenyl)methyl]-1-(1-methylpiperidin-4-yl)-3-{[4-(propan-2-yloxy)phenyl]methyl}urea; Trifluoroacetic Acid]
3.16 | CCCOc1ccc(CNC(=O)N(Cc2ccc(F)cc2F)C2CCN(C)CC2)cc1 [Example 140, 1-[(2,4-difluorophenyl)methyl]-1-(1-methylpiperidin-4-yl)-3-[(4-propoxyphenyl)methyl]urea]
5.01 | COc1cc(CNC(=O)N(Cc2ccc(F)cc2F)C2CCN(C)CC2)ccc1F [Example 146, 1-[(2,4-difluorophenyl)methyl]-3-[(4-fluoro-3-methoxyphenyl)methyl]-1-(1-methylpiperidin-4-yl)urea; Trifluoroacetic Acid]
3.16 | CCCCC(CC)COc1ccc(CNC(=O)N(Cc2ccc(F)cc2F)C2CCN(C)CC2)cc1 (stereo not drawn) [Example 147, 1-[(2,4-difluorophenyl)methyl]-3-({4-[(2-ethylhexyl)oxy]phenyl}methyl)-1-(1-methylpiperidin-4-yl)urea; Trifluoroacetic Acid]
5.01 | COc1cc(F)c(CNC(=O)N(Cc2ccc(F)cc2F)C2CCN(C)CC2)c(F)c1 [Example 150, 1-[(2,6-difluoro-4-methoxyphenyl)methyl]-3-[(2,4-difluorophenyl)methyl]-3-(1-methylpiperidin-4-yl)urea; Trifluoroacetic Acid]
7.94 | O=C(O)C(F)(F)F.[2H]C1([2H])Oc2ccc(CNC(=O)N(Cc3ccc(F)cc3F)C3CCN(C)CC3)cc2C1([2H])[2H] [Example 159, 1-[(2,4-difluorophenyl)methyl]-3-{[2,3-dihydro(2,2,3,3-^2H4)-1-benzofuran-5-yl]methyl}-1-(1-methylpiperidin-4-yl)urea; Trifluoroacetic Acid]

Structure (SMILES) | Ki [nM]
CCCCOc1ccc(CNC(=O)N(Cc2ccc(F)cc2F)C2CCN(C)CC2)cc1 [Example 124, 3-[(4-butoxyphenyl)methyl]-1-[(2,4-difluorophenyl)methyl]-1-(1-methylpiperidin-4-yl)urea] | 10
